Substitutions are numbered along the chain they refer to.

From patent publication US8097422B2, “Kir channel modulators” (Salk Institute for Biological Studies, priority 2007, dated 2012) come the findings set out here.

Holding throughout (type): cell-based
Test [1] deals with GIRK2 L257Y mutant channel. The test is described as follows: whole-cell patch clamp, GIRK2 L257Y mutant channel. Particulars: n=9; for activation of GIRK2 L257Y, percentage change from basal current: alcohols as for wild type (100 mM). The method, then: (§1) Point mutations were introduced by Quickchange site directed mutagenesis kit (Stratagene). The GIRK2 PIP mutant was generated by overlap-PCR method. […] Mutations were confirmed by automated DNA sequencing methods. […] Cells were plated in a 12 well dish, and were transiently transfected using Lipofectamine 2000 (Invitrogen). After 12-24 hrs, cells were re-plated to 12-mm glass coverslips coated with poly-D-[…] microgram/ml). […] The cells were co-transfected with 0.04 micrograms of eYFP cDNA to identify transfected cells. 0.8 micrograms of Muscarinic Receptor 2 (M2R) was also co-transfected for experiments with Carbachol. […] Whole-cell patch clamp recordings were performed 24-72 hrs after transfection. […] Alcohols, 5 μM Carbachol, and 1 mM BaCl2 (diluted in 20K solution) were applied from outside the cell with the rapid perfusion system (Warner Instruments). […] Current-voltage relationships also were obtained from the ramp protocol. This protocol was used to measure the inwardly rectifying currents at -100 mV and to ensure stability of recording by monitoring a reversal potential and inward rectification. […] Alcohol and Carbachol modulated currents were measured by averaging two consecutive current readings upon reaching steady state, and subtracting the averaged basal current before and after the application of modulator.

Test [2] deals with T1, IRK1 L245W mutant channel (Mus musculus, UniProt P35561, L245W).
T1 construct: expressed in transfected cells; host or cells: HEK293 / HEK293T
T1 sequence (P35561 1-428 L245W): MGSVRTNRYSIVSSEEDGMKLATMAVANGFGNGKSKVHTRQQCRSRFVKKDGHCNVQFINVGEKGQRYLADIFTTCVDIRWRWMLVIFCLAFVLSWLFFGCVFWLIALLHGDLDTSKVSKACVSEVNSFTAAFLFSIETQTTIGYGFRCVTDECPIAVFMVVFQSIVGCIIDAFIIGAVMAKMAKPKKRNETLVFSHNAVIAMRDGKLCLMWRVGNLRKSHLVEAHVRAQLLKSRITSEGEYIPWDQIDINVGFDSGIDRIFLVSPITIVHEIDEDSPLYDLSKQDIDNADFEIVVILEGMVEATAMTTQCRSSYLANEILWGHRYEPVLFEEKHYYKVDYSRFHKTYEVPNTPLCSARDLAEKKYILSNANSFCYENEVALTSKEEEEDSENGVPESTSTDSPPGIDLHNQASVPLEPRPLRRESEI
The test is described as follows: whole-cell patch clamp, IRK1 L245W mutant channel. Particulars: equimolar 50 mM alcohol series. The method, then:
as §1

The target in test [3] is T2, GIRK2 L257W mutant channel (Mus musculus, UniProt P48542, L257W).
T2 construct: expressed in transfected cells; host or cells: HEK293T
T2 sequence (P48542 1-425 L257W): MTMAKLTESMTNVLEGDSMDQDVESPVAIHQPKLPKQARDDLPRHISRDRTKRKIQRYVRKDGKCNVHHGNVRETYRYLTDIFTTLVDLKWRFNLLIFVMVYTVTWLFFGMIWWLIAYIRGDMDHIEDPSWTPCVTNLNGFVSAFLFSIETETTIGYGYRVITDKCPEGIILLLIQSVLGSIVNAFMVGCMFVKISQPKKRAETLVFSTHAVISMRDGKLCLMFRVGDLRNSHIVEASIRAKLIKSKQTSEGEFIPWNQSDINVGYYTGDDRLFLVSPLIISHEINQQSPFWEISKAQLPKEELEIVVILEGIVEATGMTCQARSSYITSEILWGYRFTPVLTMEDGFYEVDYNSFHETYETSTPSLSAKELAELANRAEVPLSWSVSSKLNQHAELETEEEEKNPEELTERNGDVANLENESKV
As to the kind of experiment: whole-cell patch clamp, GIRK2 L257W mutant channel. Particulars: n=9; for modulation of GIRK2 L257W, percentage change from basal current (negative = inhibition): alcohols as for wild type (100 mM). As for the experimental part:
as §1

Test [4] deals with T3, GIRK2 PIP S148T mutant channel (Mus musculus, UniProt P48542, D228N/I234L/M344L/N231K/S148T).
T3 construct: expressed in transfected cells; host or cells: HEK293 / HEK293T
T3 sequence (P48542 1-425 S148T/D228N/N231K/I234L/M344L): T2 sequence (P48542 1-425 L257W) with S148T, D228N, N231K, I234L, W257L, M344L
The test is described as follows: whole-cell patch clamp, GIRK2 PIP S148T mutant channel. Particulars: 50 mM alcohols. As for the experimental part:
as §1

Test [5] concerns the target T4, GIRK4 (Rattus norvegicus, UniProt P48548).
T4 construct: expressed in transfected cells; host or cells: HEK293 / HEK293T
T4 sequence (P48548 1-419): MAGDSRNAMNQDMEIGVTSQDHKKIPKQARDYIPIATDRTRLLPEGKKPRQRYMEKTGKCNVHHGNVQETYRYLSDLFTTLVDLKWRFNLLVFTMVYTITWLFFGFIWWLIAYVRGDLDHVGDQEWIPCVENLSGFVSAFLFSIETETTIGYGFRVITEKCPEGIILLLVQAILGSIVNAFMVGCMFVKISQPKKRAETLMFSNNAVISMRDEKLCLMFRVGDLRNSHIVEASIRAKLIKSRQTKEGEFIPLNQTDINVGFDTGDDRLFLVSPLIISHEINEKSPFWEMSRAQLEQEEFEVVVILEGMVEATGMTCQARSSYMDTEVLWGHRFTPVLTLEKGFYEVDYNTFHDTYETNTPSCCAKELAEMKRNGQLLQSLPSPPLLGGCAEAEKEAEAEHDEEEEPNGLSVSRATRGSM
As to the kind of experiment: whole-cell patch clamp, GIRK4 homo-tetramers. Particulars: n=7. The method, then: as §1

The target in test [6] is T5, GIRK2 L257A mutant channel (Mus musculus, UniProt P48542, L257A).
T5 construct: expressed in transfected cells; host or cells: HEK293T
T5 sequence (P48542 1-425 L257A): T2 sequence (P48542 1-425 L257W) with W257A
As to the kind of experiment: whole-cell patch clamp, GIRK2 L257A mutant channel. Particulars: n=9; for activation of GIRK2 L257A, percentage change from basal current: alcohols as for wild type (100 mM). As for the experimental part: as §1

[7] abbreviates: 5 μM Carbachol, M2R co-transfected.

In the case of `CCO` [EtOH, ethanol], the “activation of GIRK2 L257Y, percentage change from basal current” value in test [1] was 92±10%. In test [2], the “inhibition of IRK1 L245W mutant channel, percentage inhibition” value is on record as −3±1%. For the same molecule, the “modulation of GIRK2 L257W, percentage change from basal current (negative = inhibition)” value in test [3] is recorded as 34±3%. Besides, the “inhibition of GIRK2 PIP S148T, percentage inhibition” value in test [4] is on record as −4±1%. Also, the “modulation of GIRK4 currents, mean percentage change from basal (negative = inhibition)” value in test [5] is on record as 43±6%. The “activation of GIRK2 L257A, percentage change from basal current” value in test [6] was 132±9%.

Regarding 1-butanol [1-BuOH], the “inhibition of IRK1 L245W mutant channel, percentage inhibition” value in test [2] was −20±2%. Also, in test [4], the “inhibition of GIRK2 PIP S148T, percentage inhibition” value is reported as −28±1%. The “modulation of GIRK4 currents, mean percentage change from basal (negative = inhibition)” value in test [5] is −70±3%.

Regarding `CC(O)CC(C)(C)O` (racemic) [MPD, 2-methyl-2,4-pentanediol], the “activation of GIRK2 L257Y, percentage change from basal current” value in test [1] turned out to be 73±10%. Also, the “inhibition of IRK1 L245W mutant channel, percentage inhibition” value in test [2] is −27±2%. Besides, the “modulation of GIRK2 L257W, percentage change from basal current (negative = inhibition)” value in test [3] is −97±4%. The “inhibition of GIRK2 PIP S148T, percentage inhibition” value in test [4] is −36±1%. Moreover, in test [5], the “modulation of GIRK4 currents, mean percentage change from basal (negative = inhibition)” value is 55±8%. Also, the “activation of GIRK2 L257A, percentage change from basal current” value in test [6] came to 330±27%.

In the case of `C[N+](C)(C)CCOC(N)=O` [Carbachol], the “Carbachol activation, GIRK2 L257Y, percentage change from basal current” value in test [1] (setting [7]) worked out at 38±11%. In test [3] (setting [7]), the “G-protein mediated activation, GIRK2 L257W, percentage change from basal current” value turned out to be 12±2%. The “Carbachol activated currents, GIRK2 L257A, percentage change from basal current” value in test [6] (setting [7]) stood at 36±6%.

Consider 1-propanol [1-PrOH], for which, in test [1], the “activation of GIRK2 L257Y, percentage change from basal current” value is on record as 275±34%. Also, the “inhibition of IRK1 L245W mutant channel, percentage inhibition” value in test [2] is −8±1%. For the same molecule, the “modulation of GIRK2 L257W, percentage change from basal current (negative = inhibition)” value in test [3] is 57±6%. Also, in test [4], the “inhibition of GIRK2 PIP S148T, percentage inhibition” value is −15±1%. In test [5], the “modulation of GIRK4 currents, mean percentage change from basal (negative = inhibition)” value worked out at 43±7%. Also, in test [6], the “activation of GIRK2 L257A, percentage change from basal current” value was 467±44%.
